Patent US9856232B1, “Dihydropyrimidinone derivatives” (KING SAUD UNIVERSITY, priority 2017, dated 2018)
Marks after values point to notes of the source that are not given here.

Key:
Type in all cases: in vivo, Albino Wistar rats
[1] = test system: Hypothermic restraint stress-induced intraluminal bleeding and gastric lesion; assay: Hypothermic restraint stress-induced ulcers; design: Gastric Lesion Ulcer Index: scale not given here; conditions: 50 mg/kg; hypothermic restraint 3 h; mean ± SE
[2] = test system: Indomethacin-induced gastric mucosal lesions; assay: Gastric lesions induced by Indomethacin; design: scale not given here; conditions: 50 mg/kg, i.p; 30 min before Indomethacin 30 mg/kg; mean ± SE
Source text: Albino Wistar rats of either sex, approximately the same age, weighing 150 to 200 g and fed on a diet of standard chow were used in this study. They were randomly divided into experimental groups of six rats each. […] The rats were sacrificed, and the stomachs removed and opened along the greater curvature, After washing with saline, the gastric lesions were quantified by a person unaware of the treatments. The animal study protocol was approved by the Research and Ethics Committee of the Experimental Animal Care Society, College of Pharmacy, King Saud University, Riyadh, Saudi Arabia.
Gastric lesions induced by Indomethacin: Indomethacin was suspended in 1.0% carboxymethylcellulose (CMC) in water (6 mg/mL) and administered orally to the 36 hour fasted rats at a dose of 30 mg/kg body weight. Control rats were treated similarly with an equivalent amount of vehicle. […] The animals were sacrificed 6 hours after treatment. The stomachs were excised, rinsed with normal saline and examined for ulceration. Table 3 provides the effect of compounds on Indomethacin-induced gastric mucosal lesions (mean±SE).

[3] = test system: malondialdehyde in stomach tissue, induced by 80% ethanol; assay: Determination of malondialdehyde (MDA); conditions: dose 50, 80% ethanol-treated rats, mean ± SE
Procedure: (§1) Albino Wistar rats of either sex, approximately the same age, weighing 150 to 200 g and fed on a diet of standard chow were used in this study. They were randomly divided into experimental groups of six rats each. Compounds (N-1 to N-18) 12.5, 25, and 50 mg/kg were given orally in the anti-ulcer studies and intraperitoneally for gastric secretion evaluation. The rats were sacrificed, and the stomachs removed and opened along the greater curvature, After washing with saline, the gastric lesions were quantified by a person unaware of the treatments. The animal study protocol was approved by the Research and Ethics Committee of the Experimental Animal Care Society, College of Pharmacy, King Saud University, Riyadh, Saudi Arabia.
Determination of malondialdehyde (MDA): The animals were sacrificed 1 hour after ethanol administration. The stomachs were removed and each was homogenized in 0.15 mol/L KCl (at 4° C.) in a Potter-Elvehjem type C homogenizer to give a 10% w/v homogenate. Aliquots of homogenate 1 mL in volume were incubated at 37° C. for 3 hours in a metabolic shaker. Then 1 mL of 10% aqueous TCA was added and mixed. The mixture was then centrifuged at 800 g for 10 minutes. One milliliter of the supernatant was removed and mixed with 1 mL of 0.67% w/v thiobarbituric acid in water and placed in a boiling water bath for 10 minutes. The mixture was cooled and diluted with 1 mL distilled water. The absorbance of the solution was then read at 535 nm. The content of malondialdehyde (nmol/g wet tissue) (index of the magnitude of lipid peroxidation) was then calculated, by reference to a standard curve of malondialdehyde solution. Table 7 provides the effect of compounds on the levels of MDA, NP_SH, and total protein in stomach tissue induced by 80% ethanol (mean±SE).

[4] = test system: Gastric lesions induced by necrotizing agents (80% ethanol, 0.2 mol/L NaOH or 25% NaCl); assay: Gastric lesions induced by necrotizing agents (cytoprotection); conditions: 50 mg/kg, i.p; 30 min before necrotizing agent; mean ± SE
[5] = test system: gastric secretion in pylorus-ligated Shay rats; assay: Pylorus-ligated rats: gastric secretion, acidity and lesion index; design: Ulcer Index, pylorus-ligated Shay rats: scale not given here; conditions: 50 mg/kg, i.p.; 6 h after pylorus ligation; mean ± SE
Procedure: as §1
Pylorus-ligated rats: Rats were fasted for 36 hours with access to water ad libitum before pylorus ligation under ether anesthesia was carried out. Care was taken not to cause bleeding or to occlude blood vessels. Compounds (N-3, N-8, N-11, and N-15) were administered intraperitoneally immediately after pylorus ligation. The rats were sacrificed at 6 hours after pylorus ligation. The stomachs were removed, the contents were collected, volumes measured, centrifuged and analyzed for tritratable acidity against […], NaOH at pH 7.0. Table 5 provides the effect of compounds on gastric secretion, acidity, and gastric lesion index in pylorus-ligated Shay rats (mean±SE).

[6] = test system: gastric wall mucus in stomach tissue, change induced by 80% ethanol; assay: Determination of gastric wall mucus (GWM); conditions: 50 mg/kg, i.p; 80% ethanol-treated rats; mean ± SE
Procedure: as §1
Determination of gastric wall mucus (GWM): Gastric wall mucus was determined according to the modified procedure. The glandular segment of the stomach was separated from the rumen of the stomach, weighed, and transferred immediately to 10 mL of 0.1% w/v Alcian blue solution (in […] sucrose solution buffered with […] sodium acetate at pH 5. Tissue was stained for 2 hours in Alcian blue, and excess dye was removed by two successive rinses with 10 mL of […] sucrose, firstly after 15 minutes and then after 45 minutes. Dye complexed with the gastric wall mucus was extracted with 10 ml of […] magnesium chloride which was intermittently shaken for 1 minute at 30 minute intervals for 2 hours. Four milliliters of blue extract were then vigorously shaken with an equal volume of diethyl ether. The resulting emulsion was centrifuged at 4000 r/min for 10 minutes and the absorbance of the aqueous layer was recorded at 580 nm. The quantity of Alcian blue extracted per gram of wet glandular tissue was then calculated. Table 6 provides the effect of compounds on the change in gastric wall mucus in stomach tissue induced by 80% ethanol (mean±SE).

[7] = test system: gastric mucosal non-protein sulfhydryls, induced by 80% ethanol; assay: Estimation of non-protein sulfhydryls (NP-SH); conditions: dose 50; stomach tissue, 80% ethanol-treated rats; mean ± SE
Procedure: as §1
Estimation of non-protein sulfhydryls (NP_SH): Gastric mucosal non-protein sulfhydryls were measured according to the method. The glandular part of the stomach was homogenized in ice-cold 0.02 mmol/L ethylenediaminetetraacetic acid (EDTA). Aliquots of 5 mL of the homogenates were mixed in 15 mL test tubes with 4 mL of distilled water and 1 mL of 50% trichloroacetic acid (TCA). The tubes were shaken intermittently for 10 minutes and centrifuged at 3000 r/min. Two milliliters of supernatant were mixed with 4 mL of 0.4 mol/L Tris buffer at pH 8.9. Then 0.1 ML of 5, 5′-dithio-bis (2-nitrobenzoic acid) (DTNB) was added and the sample was shaken. The absorbance was measured within 5 minutes of DTNB addition at 412 nm against a reagent blank.

[8] = test system: total protein in stomach tissue, induced by 80% ethanol; assay: Total protein in stomach tissue; conditions: dose 50, 80% ethanol-treated rats, mean ± SE
[9] = test system: Gastric lesions induced by 80% ethanol; assay: Gastric lesions induced by ethanol (ulcer index by severity scores); conditions: Rattus norvegicus, po, Ranitidine 50 mg/kg, vs 80% EtOH group of the row; read-out: Gastric lesions induced by 80% ethanol, % change
Procedure: as §1
Gastric lesions induced by ethanol: Albino rats of either sex weighing between (150-200 g) are divided into groups. The animals were fasted for 24 hours with free access to water. Animals were given test drugs or standard drug. One hour later 1 mL/200 gm of 80% ethanol is administered orally to each animal. The animals were anaesthetized 1 hour latter with anesthetic ether and stomach was incised along the greater curvature and ulceration was scored. The number of ulcers and the length of each ulcer were measured. Ulcer index was calculated using severity scores. The mucosal damage was examined by means of a magnifying glass. For each stomach the mucosal damage was assessed according to the following scoring system: 0.5 redness; 1.0 spot ulcers; 1.5 hemorrhagic streaks; 2.0 ulcers<3, but≦5; 3.0 ulcers>5. Table 1 provides the effect of compounds on gastric lesions induced by 80% ethanol (mean±SE).

CNC(=C[N+](=O)[O-])NCCSCc1ccc(CN(C)C)o1 [Ranitidine, reference compound]
Gastric Lesion Ulcer Index [1]: 9.66 ± 0.95
Intraluminal Bleeding Score [1]: 0.83 ± 0.30
Ulcer Index, indomethacin-induced gastric mucosal lesions [2]: 8.50 ± 0.56
MDA [3]: 1.65 ± 0.02***^b nmol/g
Ulcer Index, 0.2 mol/L NaOH [4]: 1.00 ± 0.36
Ulcer Index, 25% NaCl [4]: 1.16 ± 0.30
Ulcer Index, 80% EtOH [4]: 1.50 ± 0.22
Titratable Acidity [5]: 58.88 ± 1.85 mEg/L
Ulcer Index, pylorus-ligated Shay rats [5]: 0.50 ± 0.22
Volume of Gastric Content [5]: 4.06 ± 0.18 mL
Gastric Wall Mucus [6]: 287.24 ± 10.70***^b μg/g
NP-SH [7]: 4.24 ± 0.15**^b nmol/g
Total Protein [8]: 104.59 ± 1.59***^b g/L
inhibition in vivo at 50 mg/kg [9]: 73.3%
